Measurements reported in patent US11339128B2 (Firmenich Incorporated, priority 2014, dated 2022).

Molecular target: T1, T1R2/T1R3 taste receptor (Homo sapiens, UniProt Q7RTX0+Q8TE23)
T1 sequence (Q8TE23 20-839): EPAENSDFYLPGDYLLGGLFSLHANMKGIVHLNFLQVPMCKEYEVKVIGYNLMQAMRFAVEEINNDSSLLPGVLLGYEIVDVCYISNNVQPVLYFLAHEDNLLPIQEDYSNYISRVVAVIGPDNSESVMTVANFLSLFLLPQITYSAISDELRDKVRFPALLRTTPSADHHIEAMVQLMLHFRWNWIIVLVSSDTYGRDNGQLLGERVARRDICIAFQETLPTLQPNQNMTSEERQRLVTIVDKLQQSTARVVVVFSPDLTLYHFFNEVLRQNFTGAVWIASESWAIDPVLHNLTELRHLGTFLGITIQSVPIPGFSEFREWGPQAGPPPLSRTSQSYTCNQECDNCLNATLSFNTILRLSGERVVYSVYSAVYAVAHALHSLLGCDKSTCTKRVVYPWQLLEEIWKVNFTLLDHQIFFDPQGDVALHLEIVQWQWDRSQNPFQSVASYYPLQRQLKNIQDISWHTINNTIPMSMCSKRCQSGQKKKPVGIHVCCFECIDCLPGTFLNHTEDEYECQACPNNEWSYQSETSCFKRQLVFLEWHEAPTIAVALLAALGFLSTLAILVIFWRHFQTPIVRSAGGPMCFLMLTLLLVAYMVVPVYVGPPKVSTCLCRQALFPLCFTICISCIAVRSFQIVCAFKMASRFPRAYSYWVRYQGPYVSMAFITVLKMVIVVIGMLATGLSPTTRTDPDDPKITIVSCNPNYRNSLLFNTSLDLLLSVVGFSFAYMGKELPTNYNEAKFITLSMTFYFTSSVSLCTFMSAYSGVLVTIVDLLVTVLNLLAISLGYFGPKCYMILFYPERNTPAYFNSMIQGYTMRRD
T1 sequence (Q7RTX0 21-852): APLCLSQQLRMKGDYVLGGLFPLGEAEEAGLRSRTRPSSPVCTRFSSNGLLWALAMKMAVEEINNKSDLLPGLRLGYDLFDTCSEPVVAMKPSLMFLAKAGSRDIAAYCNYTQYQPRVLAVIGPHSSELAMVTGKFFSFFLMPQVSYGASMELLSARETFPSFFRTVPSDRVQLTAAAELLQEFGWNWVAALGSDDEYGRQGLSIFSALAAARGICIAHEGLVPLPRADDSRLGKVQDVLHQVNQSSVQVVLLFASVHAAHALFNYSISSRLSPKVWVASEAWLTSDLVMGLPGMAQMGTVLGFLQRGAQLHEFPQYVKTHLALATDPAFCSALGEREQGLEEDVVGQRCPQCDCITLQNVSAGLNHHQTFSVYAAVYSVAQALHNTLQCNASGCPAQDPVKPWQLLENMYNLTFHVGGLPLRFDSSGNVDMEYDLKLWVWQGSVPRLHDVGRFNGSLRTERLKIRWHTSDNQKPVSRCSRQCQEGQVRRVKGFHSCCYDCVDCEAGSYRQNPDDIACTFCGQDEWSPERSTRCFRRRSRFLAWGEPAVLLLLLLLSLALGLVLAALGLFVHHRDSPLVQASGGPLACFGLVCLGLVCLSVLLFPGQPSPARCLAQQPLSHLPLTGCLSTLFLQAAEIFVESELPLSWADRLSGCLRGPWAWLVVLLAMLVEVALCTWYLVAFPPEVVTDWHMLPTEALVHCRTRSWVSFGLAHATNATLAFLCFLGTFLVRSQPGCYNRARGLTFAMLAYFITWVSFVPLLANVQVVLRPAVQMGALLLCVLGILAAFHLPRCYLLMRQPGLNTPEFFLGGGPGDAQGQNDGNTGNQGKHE
Experiment: Receptor-based assay: sweetener EC50 enhancement ratio with and without test compound
Format: cell-based
Details: for Sucrose Enhancement EC50 Ratio: sweetener sucrose; for Sucralose Enhancement EC50 Ratio: sweetener sucralose; for Fructose Enhancement EC50 Ratio: sweetener fructose
Description: Potencies (EC50 values) for the sweeteners sucrose, sucralose, and fructose were measured against the T1R2/T1R3 taste receptor. EC50 was determined using the sweetener alone and in the presence of 1 μM, 3 μM, 10 μM, or 50 μM of test compound. EC50 ratios were calculated by the ratio of potency with and without the test compound. An “A” value indicates an enhancement ratio of greater than 1 and less than 10. A “B” value indicates an enhancement ratio from 10 to 20. A “C” value indicates an enhancement ratio greater than 20.

Compound | Sucrose Enhancement EC50 Ratio (1 μM test compound) | Sucralose Enhancement EC50 Ratio (3 μM test compound) | Sucrose Enhancement EC50 Ratio (3 μM test compound) | Fructose Enhancement EC50 Ratio (10 μM test compound) | Sucralose Enhancement EC50 Ratio (10 μM test compound) | Sucrose Enhancement EC50 Ratio (10 μM test compound) | Fructose Enhancement EC50 Ratio (50 μM test compound)
COc1cc(OC)nc(N[C@H]2CC[C@H](Oc3cccc4nc(C)c(C(=O)O)c(N)c34)CC2)n1 [Compound 710] | A (an enhancement ratio of greater than 1 and less than 10) | A (an enhancement ratio of greater than 1 and less than 10) | A (an enhancement ratio of greater than 1 and less than 10) | A (an enhancement ratio of greater than 1 and less than 10) | B (an enhancement ratio from 10 to 20) | B (an enhancement ratio from 10 to 20) | A (an enhancement ratio of greater than 1 and less than 10)
Cc1cnn(CC(=O)N[C@H]2CC[C@H](Oc3cccc4nc(C)c(C(=O)O)c(N)c34)CC2)c1 [Compound 330] | A (an enhancement ratio of greater than 1 and less than 10) |  | A (an enhancement ratio of greater than 1 and less than 10) |  |  | A (an enhancement ratio of greater than 1 and less than 10) | 
Cc1nc2cccc(O[C@H]3CC[C@H](NC(=O)COC4CCOCC4)CC3)c2c(N)c1C(=O)O [Compound 314] | B (an enhancement ratio from 10 to 20) | B (an enhancement ratio from 10 to 20) |  |  |  |  | 
CCCc1ccnc(N[C@H]2CC[C@H](Oc3cccc4nc(C)c(C(=O)O)c(N)c34)CC2)n1 [Compound 709] | A (an enhancement ratio of greater than 1 and less than 10) | A (an enhancement ratio of greater than 1 and less than 10) | A (an enhancement ratio of greater than 1 and less than 10) |  | A (an enhancement ratio of greater than 1 and less than 10) | A (an enhancement ratio of greater than 1 and less than 10) | 
CN[C@@H](CO)C(=O)N[C@H]1CC[C@H](Oc2cccc3nc(C)c(C(=O)O)c(N)c23)CC1 [Compound 502] | A (an enhancement ratio of greater than 1 and less than 10) |  | A (an enhancement ratio of greater than 1 and less than 10) | A (an enhancement ratio of greater than 1 and less than 10) | A (an enhancement ratio of greater than 1 and less than 10) | A (an enhancement ratio of greater than 1 and less than 10) | A (an enhancement ratio of greater than 1 and less than 10)
CCCc1cnc(N[C@H]2CC[C@H](Oc3cccc4nc(C)c(C(=O)O)c(N)c34)CC2)nc1 [Compound 706] | A (an enhancement ratio of greater than 1 and less than 10) | A (an enhancement ratio of greater than 1 and less than 10) | A (an enhancement ratio of greater than 1 and less than 10) | A (an enhancement ratio of greater than 1 and less than 10) | B (an enhancement ratio from 10 to 20) | B (an enhancement ratio from 10 to 20) | A (an enhancement ratio of greater than 1 and less than 10)
Cc1nc2cccc(O[C@H]3CC[C@H](NC(=O)CN(C)C)CC3)c2c(N)c1C(=O)O [Compound 324] | A (an enhancement ratio of greater than 1 and less than 10) | A (an enhancement ratio of greater than 1 and less than 10) | A (an enhancement ratio of greater than 1 and less than 10) |  |  |  | 
CCc1nc2cccc(O[C@H]3CC[C@H](CO)CC3)c2c(N)c1C(=O)O [Compound 206] | A (an enhancement ratio of greater than 1 and less than 10) |  | A (an enhancement ratio of greater than 1 and less than 10) |  |  | A (an enhancement ratio of greater than 1 and less than 10) | 
Cc1nc2cccc(O[C@H]3CC[C@H](NC(=O)COCCOC(C)C)CC3)c2c(N)c1C(=O)O [Compound 329] | A (an enhancement ratio of greater than 1 and less than 10) | A (an enhancement ratio of greater than 1 and less than 10) | B (an enhancement ratio from 10 to 20) |  |  |  | 
COCCC(=O)N[C@H]1CC[C@H](Oc2cccc3nc(C)c(C(=O)O)c(N)c23)CC1 [Compound 317] | A (an enhancement ratio of greater than 1 and less than 10) |  | A (an enhancement ratio of greater than 1 and less than 10) |  |  | B (an enhancement ratio from 10 to 20) | 
Cc1nc2cccc(O[C@H]3CC[C@H](CN)CC3)c2c(N)c1C(=O)O.Cl [Compound 602] | A (an enhancement ratio of greater than 1 and less than 10) |  | A (an enhancement ratio of greater than 1 and less than 10) | A (an enhancement ratio of greater than 1 and less than 10) |  | C (an enhancement ratio greater than 20) | 
Cc1nc2cccc(O[C@H]3CC[C@H](NC(=O)COc4ccccc4)CC3)c2c(N)c1C(=O)O [Compound 327] | A (an enhancement ratio of greater than 1 and less than 10) |  |  |  |  |  | 
Cc1nc2cccc(O[C@H]3CC[C@H](NC(=O)Cc4c[nH]cn4)CC3)c2c(N)c1C(=O)O [Compound 321] | A (an enhancement ratio of greater than 1 and less than 10) |  | A (an enhancement ratio of greater than 1 and less than 10) |  |  |  | 
Cc1ccnc(N[C@H]2CC[C@H](Oc3cccc4nc(C)c(C(=O)O)c(N)c34)CC2)n1 [Compound 708] | A (an enhancement ratio of greater than 1 and less than 10) | C (an enhancement ratio greater than 20) | C (an enhancement ratio greater than 20) | A (an enhancement ratio of greater than 1 and less than 10) | C (an enhancement ratio greater than 20) | C (an enhancement ratio greater than 20) | 
Cc1nc2cccc(O[C@H]3CC[C@H](O)CC3)c2c(N)c1C(=O)O [Compound 107] | A (an enhancement ratio of greater than 1 and less than 10) |  | A (an enhancement ratio of greater than 1 and less than 10) |  |  | B (an enhancement ratio from 10 to 20) | 
Cc1nc2cccc(O[C@H]3CC[C@H](NC(=O)COCCC(C)C)CC3)c2c(N)c1C(=O)O [Compound 340] | B (an enhancement ratio from 10 to 20) | A (an enhancement ratio of greater than 1 and less than 10) | B (an enhancement ratio from 10 to 20) |  |  |  | 
